# Measurements published in patent publication US12338199B2, “Bis-octahydrophenanthrene carboxamides and protein conjugates thereof” (REGENERON PHARMACEUTICALS, INC., priority 2017, dated 2025).
# Like-named read-outs stand apart in the source and are kept apart here.
# Assays:
# THP1/LXR-Luc cells = test: THP1/LXR-Luc luciferase reporter bioassay; format: cell-based; conditions: Homo sapiens, THP-1, 48 hours; for EC50: read-out: Activation of THP1/LXR-Luc cells: EC50; for Emax: relative to maximum activation of free payload 9d, read-out: Activation of THP1/LXR-Luc cells: Fold of activation
# From the text: The fold activation in the cell-based assays (as described in Example 68, below) was defined based on the maximum activation of the free payload 9d.
# (§1) A bioassay was developed to assess the activity of LXR agonists after internalization of an agonist or of a ncADC into cells and binding to LXR, a nuclear receptor, using a commercially available LXR reporter (referred to as LXR-Luc) that contains the firefly luciferase gene under control by minimal CMV promoter and tandem repeats of the LXR transcriptional response element. For this assay, a THP1 cell line, which is a human monocytic leukaemia line, was engineered to express full length human Her2 (expressing amino acids M1 through V1255 of accession number NP_004439.2). The subsequent stable cell line was further transduced with a Cignal LXR Luc Reporter (Qiagen, Cat # CLS-7041L). The resulting stable cell line is referred to herein as THP1/Her2/LXR-Luc. The Her2 cell surface expression on THP1/Her2/LXR-Luc cell line was confirmed by FACS (data not shown).
# Additionally, a THP1 cell line was transduced with a Cignal LXR Luc Reporter (Qiagen, Cat # CLS-7041L) without the addition of Her2. The resulting stable cell line is referred to herein as THP1/LXR-Luc. All of the antibodies used in the subsequent bioassays were assessed for their ability to internalize and release a payload on the bioassay cell line used.
# (§2) This example assessed the ability of the LXR agonists provided herein, reference compounds, and anti-Her2 antibody-LXR ncADC to activate LXR. The samples were tested in the THP1/LXR-Luc/Her2 bioassay. For the assay, either THP1/LXR-Luc cells or THP1/LXR-Luc/Her2 cells were seeded onto white 96 well plates at 30,000 cells/well in media containing RPMI supplemented with 10% FBS and pencillin/streptomycin (complete media). Subsequently 3-fold serial dilutions of antibody drug conjugates, unconjugated antibodies, or free payloads were added to the cells at final concentration ranging from 100 nM to 0.01 nM. After 48-hour or 72-hour incubation, luciferase activity was determined after the addition of One-Glo™ reagent (Promega, Cat # E6130) to each well of cells. Relative light units (RLUs) were measured on a Victor luminometer (PerkinElmer) and the EC5o values were determined using a four-parameter logistic equation over a 10-point dose response curve (GraphPad Prism) (FIG. 15). The fold activation is calculated based on the maximum activation of the free payload 9d.
# LXR beta = molecular target: T1, LXR beta (Homo sapiens, UniProt P55055); test: LanthaScreen TR-FRET LXR beta Coactivator Assay (cell-free binding)
# T1 construct: LXR alpha or beta LBD-GST; purchased ThermoFisher PV4658
# T1 sequence (P55055 222-460 limits assumed): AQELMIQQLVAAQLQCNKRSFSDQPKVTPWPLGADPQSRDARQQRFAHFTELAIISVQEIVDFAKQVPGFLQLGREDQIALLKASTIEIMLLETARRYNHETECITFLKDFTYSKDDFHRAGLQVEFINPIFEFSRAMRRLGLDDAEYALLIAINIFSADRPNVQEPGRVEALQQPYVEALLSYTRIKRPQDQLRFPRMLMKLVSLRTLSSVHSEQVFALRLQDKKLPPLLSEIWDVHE
# Method: (§3) To evaluate the ability of novel LXR agonists to bind to the LXR alpha and beta receptor, a cell-free binding assay was performed using a LanthaScreen TR-FRET LXR alpha Coactivator Assay Kit (ThermoFisher, Cat # PV4655) and LXR beta Coactivator Assay Kit (ThermoFisher, Cat # PV4658). The assay was performed according to the manufacturer's instructions. Briefly, a 3-fold serial dilution of LXR agonists were prepared in 100% DMSO starting at 100 μM (100× of final). Serial dilutions were further diluted 50-fold in nuclear receptor buffer F with 5 mM DTT, and transferred to a 384-well assay plate. Next, Fluorescein-D22, LXR alpha or beta LBD-GST, and Tb anti-GST antibody was sequentially added to 384-well assay plate. The plate was then incubated at rt for 2.5 hours while being protected from light. […] The IC50 values were determined using a four-parameter logistic equation over a 12-point response curve (GraphPad Prism).
# LXR alpha = molecular target: T2, LXR alpha (Homo sapiens, UniProt Q13133); test: LanthaScreen TR-FRET LXR alpha Coactivator Assay (cell-free binding)
# T2 construct: LXR alpha or beta LBD-GST; purchased ThermoFisher PV4655
# T2 sequence (Q13133 209-447 limits assumed): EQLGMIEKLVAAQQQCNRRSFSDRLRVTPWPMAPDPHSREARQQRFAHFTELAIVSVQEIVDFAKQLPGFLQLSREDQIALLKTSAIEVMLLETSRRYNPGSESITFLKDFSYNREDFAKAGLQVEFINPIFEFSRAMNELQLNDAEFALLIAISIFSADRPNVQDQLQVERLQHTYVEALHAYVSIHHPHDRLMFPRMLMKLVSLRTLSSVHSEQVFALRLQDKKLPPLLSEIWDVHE
# Method: as §3
# THP1/LXR-Luc/Her2 cells = test: THP1/LXR-Luc/Her2 luciferase reporter bioassay; format: cell-based; conditions: Homo sapiens
# From the text: as §1, §2
# ABCG1 = ABCG1 mRNA induction in differentiated THP-1 macrophages (TaqMan); format: cell-based, human; conditions: THP1 macrophages, 24-hour treatment; magnitude in words
# Method: (§4) To determine the ability of LXR agonists to activate ABCA1 and ABCG1 genes, the mRNA levels of these two genes in differentiated macrophages was measured. […] Cells were differentiated into macrophages by treatment with 100 nM Phorbol-12 myristate 13-acetate (Sigma, # P8139), which was added to the media described above, for 72 hours. […] Chloroform was then used for phase separation. The aqueous phase, containing total RNA, was purified using MagMAX™-96 for Microarrays Total RNA Isolation Kit (Ambion, Cat # AM1830) and reverse-transcribed into cDNA using SuperScript® VILO™ Master Mix (Invitrogen, Cat #11755050) as per the manufacturer's instructions. TaqMan® was performed using Gene Expression Master Mix, the ABI 7900HT Sequence Detection System (Applied Biosystems) and the primers and probes indicated below in Table 9. The GAPDH gene was used as the internal control gene to normalize any cDNA input differences.
# ABCA1 = ABCA1 mRNA induction in differentiated THP-1 macrophages (TaqMan); format: cell-based, human; conditions: THP1 macrophages, 24-hour treatment; magnitude in words
# Method: as §4
# [1] = Water solubility and pH stability of phosphate analogs; format: physicochemical
# From the text: The phosphoric acid-analog 17a was obtained from the treatment of phenol 9g with diphosphoryl chloride 18. Compounds 17b and 17c were obtained from the acidic deprotection of 17a with TFA.
# LXRα = molecular target: T3, LXRα (Homo sapiens, UniProt Q13133); conditions: reported in Bioconjug Chem. 2015 26(11), 2216-22; cited from earlier work
# T3 sequence (Q13133 1-447): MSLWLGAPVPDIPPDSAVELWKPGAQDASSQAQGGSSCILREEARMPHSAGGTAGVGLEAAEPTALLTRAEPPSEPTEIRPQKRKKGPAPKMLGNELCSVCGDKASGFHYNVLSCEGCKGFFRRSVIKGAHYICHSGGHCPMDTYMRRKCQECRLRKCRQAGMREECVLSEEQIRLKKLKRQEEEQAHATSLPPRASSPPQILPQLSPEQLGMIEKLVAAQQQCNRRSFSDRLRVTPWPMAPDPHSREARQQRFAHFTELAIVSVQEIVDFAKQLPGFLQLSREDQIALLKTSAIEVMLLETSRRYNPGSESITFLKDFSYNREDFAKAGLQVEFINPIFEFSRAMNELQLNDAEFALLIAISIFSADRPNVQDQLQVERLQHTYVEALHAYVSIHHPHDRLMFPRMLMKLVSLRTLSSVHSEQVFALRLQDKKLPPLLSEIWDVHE
# LXRβ = molecular target: T4, LXRβ (Homo sapiens, UniProt P55055); conditions: reported in Bioconjug Chem. 2015 26(11), 2216-22; cited from earlier work
# T4 sequence (P55055 1-460): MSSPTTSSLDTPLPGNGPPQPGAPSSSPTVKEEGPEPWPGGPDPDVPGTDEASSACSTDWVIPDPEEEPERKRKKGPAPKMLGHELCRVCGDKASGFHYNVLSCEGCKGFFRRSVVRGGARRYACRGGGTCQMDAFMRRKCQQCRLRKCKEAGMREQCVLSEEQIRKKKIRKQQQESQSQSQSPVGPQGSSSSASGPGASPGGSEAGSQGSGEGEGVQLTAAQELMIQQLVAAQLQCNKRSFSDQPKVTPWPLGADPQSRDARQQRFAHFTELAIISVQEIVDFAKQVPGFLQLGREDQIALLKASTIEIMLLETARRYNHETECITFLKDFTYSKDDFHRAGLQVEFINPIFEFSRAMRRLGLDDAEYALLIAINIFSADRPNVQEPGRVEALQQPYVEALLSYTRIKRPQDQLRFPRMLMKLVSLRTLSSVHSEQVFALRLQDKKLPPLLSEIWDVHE
# Solubility in water = format: physicochemical; conditions: H2O
# Method: To a solution of compound LP2-6 (4.3 mg, 7.8 μmol) in anhydrous DMF (1 mL) was added HATU (3.0 mg, 7.8 μmol). The mixture was stirred at 10° C. for 10 minutes before compound LP2-5 (15 mg, 6.5 μmol) and DIPEA (1.7 mg, 13 μmol) was added. The mixture was stirred at RT for 2 hours until LP2-5 was totally consumed, as monitored by LCMS. […]
# [2] = TR-FRET, 12-point curve, read-out: Cell free binding LXRβ IC50
# [3] = TR-FRET, 12-point curve, read-out: Cell free binding LXRα IC50
compound,measurement,setting,value
"C[C@]1(C(=O)NC(=O)[C@@]2(C)CCC[C@]3(C)c4cc(NC(=O)CN)ccc4CC[C@@H]23)CCC[C@]2(C)c3cc(O)ccc3CC[C@@H]12 [Compound 9h, (1S,4aS,10aR)-6-(2-Aminoacetamido)-N-((1S,4aS,10aR)-6-hydroxy-1,4a-dimethyl-1,2,3,4,4a,9,10,10a-octahydrophenanthrene-1-carbonyl)-1,4a-dimethyl-1,2,3,4,4a,9,10,10a-octahydrophenanthrene-1-carboxamide]",EC50,THP1/LXR-Luc cells,≤ 1 nM
same,Emax,THP1/LXR-Luc cells,> 75%
same,IC50,LXR beta; [2],< 1 nM
same,IC50,LXR alpha; [3],< 1 nM
same,EC50,"THP1/LXR-Luc/Her2 cells; THP-1, 48 h, 48-hour time point",0.5 nM
same,EC50,"THP1/LXR-Luc/Her2 cells; THP-1, 48 h, 48 hours, unit inferred, values correspond to M",0.5 nM
same,EC50,"THP1/LXR-Luc/Her2 cells; THP-1, 72 h, 72-hour time point",0.65 nM
same,EC50,"THP1/LXR-Luc/Her2 cells; THP-1, 72 h, 72 hours",0.65 nM
same,ABCG1 induction EC50,ABCG1,sub-picomolar
same,ABCA1 induction EC50,ABCA1,sub-picomolar
"C[C@]1(C(=O)NC(=O)[C@@]2(C)CCC[C@]3(C)c4cc(OP(=O)(O)O)ccc4CC[C@@H]23)CCC[C@]2(C)c3cc(N)ccc3CC[C@@H]12 [Compound 17c, (4bS,8S,8aR)-8-((1S,4aS,10aR)-6-Amino-1,4a-dimethyl-1,2,3,4,4a,9,10,10a-octahydrophenanthrene-1-carbonylcarbamoyl)-4b,8-dimethyl-4b,5,6,7,8,8a,9,10-octahydrophenanthren-3-yl dihydrogen phosphate]",Stability,"[1]; pH as given in the value, 17c converted to 17b in the presence of methanol",not stable at pH 5
same,Solubility in water,[1]; under basic and neutral conditions,soluble in water
same,EC50,THP1/LXR-Luc cells,≤ 1 nM
same,Emax,THP1/LXR-Luc cells,> 75%
same,IC50,LXR beta,< 10 nM
same,IC50,LXR alpha,> 100 nM
"CCc1cnc2c(C(F)(F)F)cccc2c1-c1cccc(Oc2cccc(S(=O)(=O)N(C)CCN)c2)c1 [Compound 31, N-(2-Aminoethyl)-3-(3-(3-ethyl-8-(trifluoromethyl)quinolin-4-yl)phenoxy)-N-methylbenzenesulfonamide, reference compound]",binding affinity to LXRα,LXRα,1.5 nM
same,EC50,THP1/LXR-Luc cells,10 to 100 nM
same,Emax,THP1/LXR-Luc cells,25 to 75%
same,IC50,LXR beta; [2],< 10 nM
same,IC50,LXR alpha; [3],< 10 nM
same,binding affinity to LXRβ,LXRβ,12 nM
CC(C)[C@H](NC(=O)[C@@H](CCCCNC(=O)COC1CCCCCc2c1nnn2CC1OC2OC3C(CO)OC(OC4C(CO)OC(OC5C(CO)OC(OC6C(CO)OC(OC7C(CO)OC(OC8C(CO)OC(OC9C(CO)OC(OC1C(O)C2O)C(O)C9O)C(O)C8O)C(O)C7O)C(O)C6O)C(O)C5O)C(O)C4O)C(O)C3O)NC(=O)CCOCCOCCOCCOCCNC(=O)CCC(=O)N1Cc2ccccc2C#Cc2ccccc21)C(=O)N[C@@H](C)C(=O)Nc1ccc2c(c1)[C@@]1(C)CCC[C@](C)(C(=O)NC(=O)[C@@]3(C)CCC[C@]4(C)c5cc(O)ccc5CC[C@@H]34)[C@@H]1CC2 (some centres unmarked) [LP32],solubility,Solubility in water,75 µg/mL
